Read-outs that look alike come from different tables or passages of the source.
Experiments:
CDK17/Cyclin Y = CDK17/Cyclin Y (Homo sapiens, UniProt Q00537); assay: NanoBRET live-cell target engagement, CDK17-NanoLuc/Cyclin Y in HEK-293; format: binding; conditions: CDK17/Y
CDK6/Cyclin D1 = CDK6/Cyclin D1 (Homo sapiens, UniProt Q00534); assay: NanoBRET live-cell target engagement, NanoLuc-CDK6/Cyclin D1 in HEK-293; format: binding; conditions: CDK6/D1
CDK1/Cyclin E1 = CDK1/Cyclin E1 (Homo sapiens, UniProt P06493); assay: NanoBRET live-cell target engagement, CDK1-NanoLuc/Cyclin E1 in HEK-293; format: binding
CDK1/Cyclin E1, sequence (P06493 whole entry): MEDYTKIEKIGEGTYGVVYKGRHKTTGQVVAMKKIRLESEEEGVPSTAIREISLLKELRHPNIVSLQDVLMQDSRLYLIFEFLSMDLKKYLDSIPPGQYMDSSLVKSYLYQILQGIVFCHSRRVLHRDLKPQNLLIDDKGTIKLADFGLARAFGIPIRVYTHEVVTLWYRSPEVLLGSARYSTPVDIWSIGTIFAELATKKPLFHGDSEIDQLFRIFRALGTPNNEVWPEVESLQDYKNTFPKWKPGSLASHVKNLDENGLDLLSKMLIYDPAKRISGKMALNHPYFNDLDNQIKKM
CDK1/Cyclin E1, sequence (P24864 whole entry partner): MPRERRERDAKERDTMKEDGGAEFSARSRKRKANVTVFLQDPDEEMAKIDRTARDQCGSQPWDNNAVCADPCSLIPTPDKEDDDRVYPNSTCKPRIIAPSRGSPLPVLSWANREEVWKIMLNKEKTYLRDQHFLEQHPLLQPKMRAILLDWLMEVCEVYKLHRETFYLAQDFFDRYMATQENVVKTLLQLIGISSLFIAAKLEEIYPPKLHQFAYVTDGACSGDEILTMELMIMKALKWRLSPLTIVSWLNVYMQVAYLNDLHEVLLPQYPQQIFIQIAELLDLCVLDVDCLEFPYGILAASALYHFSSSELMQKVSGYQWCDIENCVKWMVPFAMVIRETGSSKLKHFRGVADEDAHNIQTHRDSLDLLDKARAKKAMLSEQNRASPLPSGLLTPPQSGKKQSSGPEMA

CDK7 = CDK7 (Homo sapiens, UniProt P50613); assay: NanoBRET live-cell target engagement, NanoLuc-CDK7 in HEK-293; format: binding; conditions: CDK7
CDK8/Cyclin C = CDK8/Cyclin C (Homo sapiens, UniProt P49336); assay: NanoBRET live-cell target engagement, NanoLuc-CDK8/Cyclin C in HEK-293; format: binding; conditions: CDK8/C
CDK13/Cyclin K = CDK13/Cyclin K (Homo sapiens, UniProt Q14004); assay: NanoBRET live-cell target engagement, CDK13-NanoLuc/Cyclin K in HEK-293; format: binding; conditions: CDK13/K, 10µM
CDK13/Cyclin K, sequence (O75909 whole entry): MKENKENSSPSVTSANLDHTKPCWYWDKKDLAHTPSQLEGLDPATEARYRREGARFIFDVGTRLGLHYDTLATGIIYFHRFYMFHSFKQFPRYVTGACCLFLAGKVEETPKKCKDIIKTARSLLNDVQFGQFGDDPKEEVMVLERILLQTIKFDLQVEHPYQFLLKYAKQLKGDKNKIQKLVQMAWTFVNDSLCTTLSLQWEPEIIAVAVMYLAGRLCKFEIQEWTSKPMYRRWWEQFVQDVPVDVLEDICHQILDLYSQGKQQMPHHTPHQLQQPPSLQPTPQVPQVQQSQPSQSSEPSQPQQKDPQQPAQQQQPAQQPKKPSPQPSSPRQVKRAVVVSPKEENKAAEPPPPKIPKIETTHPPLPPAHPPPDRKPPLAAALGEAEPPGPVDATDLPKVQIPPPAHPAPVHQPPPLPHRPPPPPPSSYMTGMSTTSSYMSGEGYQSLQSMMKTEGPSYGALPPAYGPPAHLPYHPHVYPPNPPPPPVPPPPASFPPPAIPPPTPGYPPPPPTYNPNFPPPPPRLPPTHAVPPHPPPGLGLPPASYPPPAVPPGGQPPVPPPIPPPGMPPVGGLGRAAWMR
CDK13/Cyclin K, sequence (Q14004 other isoform, or with tags, fused parts or gaps): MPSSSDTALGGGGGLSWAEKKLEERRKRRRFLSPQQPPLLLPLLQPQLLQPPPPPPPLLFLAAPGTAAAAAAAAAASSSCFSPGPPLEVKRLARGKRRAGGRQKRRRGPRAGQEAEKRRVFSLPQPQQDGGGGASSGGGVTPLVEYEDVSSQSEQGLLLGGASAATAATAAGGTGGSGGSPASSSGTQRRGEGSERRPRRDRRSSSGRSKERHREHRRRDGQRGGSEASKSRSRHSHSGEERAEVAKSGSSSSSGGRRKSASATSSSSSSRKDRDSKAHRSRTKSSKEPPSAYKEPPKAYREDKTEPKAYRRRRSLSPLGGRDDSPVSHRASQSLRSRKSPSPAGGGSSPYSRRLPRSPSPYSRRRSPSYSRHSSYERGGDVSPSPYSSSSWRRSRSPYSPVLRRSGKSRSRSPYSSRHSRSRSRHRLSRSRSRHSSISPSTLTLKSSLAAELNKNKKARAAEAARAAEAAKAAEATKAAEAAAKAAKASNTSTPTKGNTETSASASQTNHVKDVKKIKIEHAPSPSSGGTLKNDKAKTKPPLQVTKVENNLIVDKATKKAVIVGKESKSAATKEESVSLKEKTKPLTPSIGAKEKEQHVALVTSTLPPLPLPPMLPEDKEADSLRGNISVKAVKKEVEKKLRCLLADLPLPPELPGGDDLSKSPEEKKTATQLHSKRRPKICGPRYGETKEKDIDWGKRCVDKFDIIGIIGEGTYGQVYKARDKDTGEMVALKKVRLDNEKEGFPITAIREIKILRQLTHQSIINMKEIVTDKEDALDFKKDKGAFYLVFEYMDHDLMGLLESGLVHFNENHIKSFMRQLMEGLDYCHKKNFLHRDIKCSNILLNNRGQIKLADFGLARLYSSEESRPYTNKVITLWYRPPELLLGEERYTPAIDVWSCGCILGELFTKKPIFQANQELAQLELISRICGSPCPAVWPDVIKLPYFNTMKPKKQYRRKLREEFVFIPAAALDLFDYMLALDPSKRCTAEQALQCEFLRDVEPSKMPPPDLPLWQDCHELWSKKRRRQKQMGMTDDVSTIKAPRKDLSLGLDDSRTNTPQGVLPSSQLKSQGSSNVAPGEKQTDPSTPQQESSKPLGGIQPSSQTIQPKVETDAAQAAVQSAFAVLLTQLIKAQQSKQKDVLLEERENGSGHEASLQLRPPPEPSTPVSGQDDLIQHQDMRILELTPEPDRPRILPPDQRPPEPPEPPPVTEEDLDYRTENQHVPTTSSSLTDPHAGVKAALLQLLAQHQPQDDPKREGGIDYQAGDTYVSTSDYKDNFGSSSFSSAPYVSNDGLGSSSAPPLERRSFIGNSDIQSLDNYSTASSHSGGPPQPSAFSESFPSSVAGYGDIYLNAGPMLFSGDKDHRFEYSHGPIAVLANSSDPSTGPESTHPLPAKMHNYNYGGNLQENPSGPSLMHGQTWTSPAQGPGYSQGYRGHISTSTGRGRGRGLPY

CDK11A/Cyclin L2 = biological target: T1, CDK11A/Cyclin L2 (Homo sapiens, UniProt Q9UQ88); assay: NanoBRET live-cell target engagement, CDK11A-NanoLuc/Cyclin L2 in HEK-293; format: binding; conditions: CDK11a/L2, 10µM
T1 sequence (Q9UQ88 1-783): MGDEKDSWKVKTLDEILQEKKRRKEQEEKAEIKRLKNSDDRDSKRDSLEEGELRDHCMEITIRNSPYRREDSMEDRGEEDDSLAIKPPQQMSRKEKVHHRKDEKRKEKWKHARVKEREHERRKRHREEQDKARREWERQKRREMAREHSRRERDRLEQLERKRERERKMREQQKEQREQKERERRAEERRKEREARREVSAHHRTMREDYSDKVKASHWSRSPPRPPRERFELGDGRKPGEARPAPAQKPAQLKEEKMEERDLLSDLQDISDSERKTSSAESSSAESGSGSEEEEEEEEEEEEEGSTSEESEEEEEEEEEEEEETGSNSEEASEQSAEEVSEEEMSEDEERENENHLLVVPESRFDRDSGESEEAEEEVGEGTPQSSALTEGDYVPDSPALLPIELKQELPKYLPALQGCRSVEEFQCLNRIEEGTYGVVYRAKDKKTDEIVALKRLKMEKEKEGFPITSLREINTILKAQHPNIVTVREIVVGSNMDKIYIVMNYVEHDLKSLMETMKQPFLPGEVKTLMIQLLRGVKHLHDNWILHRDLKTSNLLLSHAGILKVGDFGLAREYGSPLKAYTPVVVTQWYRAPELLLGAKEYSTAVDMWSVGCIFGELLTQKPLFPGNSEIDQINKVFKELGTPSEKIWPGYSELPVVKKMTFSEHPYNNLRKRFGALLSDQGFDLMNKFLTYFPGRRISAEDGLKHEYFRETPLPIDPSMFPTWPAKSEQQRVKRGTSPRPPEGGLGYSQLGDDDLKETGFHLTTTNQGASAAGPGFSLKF

CDK2/Cyclin E1 = CDK2/Cyclin E1 (Homo sapiens, UniProt P24941); assay: NanoBRET live-cell target engagement, CDK2-NanoLuc/Cyclin E1 in HEK-293; format: binding; conditions: CDK2/E1
CDK20/Cyclin H = CDK20/Cyclin H (Homo sapiens, UniProt Q8IZL9); assay: NanoBRET live-cell target engagement, NanoLuc-CDK20/Cyclin H in HEK-293; format: binding; conditions: CDK20/H; 10µM
CDK19/Cyclin C = CDK19/Cyclin C (Homo sapiens, UniProt Q9BWU1); assay: NanoBRET live-cell target engagement, NanoLuc-CDK19/Cyclin C in HEK-293
CDK4/Cyclin D1 = CDK4/Cyclin D1 (Homo sapiens, UniProt P11802); assay: NanoBRET live-cell target engagement, NanoLuc-CDK4/Cyclin D1 in HEK-293; format: binding; conditions: CDK4/D1
CDK4/Cyclin D1, sequence (P11802 whole entry): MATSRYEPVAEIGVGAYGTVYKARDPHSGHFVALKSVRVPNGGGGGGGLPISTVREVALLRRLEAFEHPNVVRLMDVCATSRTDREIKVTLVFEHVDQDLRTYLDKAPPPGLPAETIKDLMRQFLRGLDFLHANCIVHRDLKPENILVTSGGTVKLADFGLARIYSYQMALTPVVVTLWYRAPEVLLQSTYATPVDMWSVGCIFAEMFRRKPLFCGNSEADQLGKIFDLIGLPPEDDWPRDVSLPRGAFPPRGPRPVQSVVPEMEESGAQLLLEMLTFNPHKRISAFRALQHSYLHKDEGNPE
CDK4/Cyclin D1, sequence (P24385 whole entry partner): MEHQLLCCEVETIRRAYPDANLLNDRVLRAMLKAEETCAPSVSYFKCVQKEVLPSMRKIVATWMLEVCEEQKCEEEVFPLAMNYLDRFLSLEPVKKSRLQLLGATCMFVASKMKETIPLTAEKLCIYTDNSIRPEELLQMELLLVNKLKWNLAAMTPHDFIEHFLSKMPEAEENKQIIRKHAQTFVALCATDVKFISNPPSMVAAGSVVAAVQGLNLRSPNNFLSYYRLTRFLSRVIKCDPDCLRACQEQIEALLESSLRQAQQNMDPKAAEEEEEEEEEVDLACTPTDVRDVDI

CDK15/Cyclin Y = CDK15/Cyclin Y (Homo sapiens, UniProt Q96Q40); assay: NanoBRET live-cell target engagement, NanoLuc-CDK15/Cyclin Y in HEK-293; format: binding; conditions: CDK15/Y
CDK5/CDK5R1 = CDK5/CDK5R1 (Homo sapiens, UniProt Q00535); assay: NanoBRET live-cell target engagement, CDK5-NanoLuc/CDK5R1 in HEK-293; format: binding; conditions: CDK5/CDK5R1
CDK11B/Cyclin L2 = CDK11B/Cyclin L2 (Homo sapiens, UniProt P21127); assay: NanoBRET live-cell target engagement, CDK11B-NanoLuc/Cyclin L2 in HEK-293; format: binding; conditions: CDK11b/L2, 10µM
CDK11B/Cyclin L2, sequence (P21127 1-782 isoform P21127-2): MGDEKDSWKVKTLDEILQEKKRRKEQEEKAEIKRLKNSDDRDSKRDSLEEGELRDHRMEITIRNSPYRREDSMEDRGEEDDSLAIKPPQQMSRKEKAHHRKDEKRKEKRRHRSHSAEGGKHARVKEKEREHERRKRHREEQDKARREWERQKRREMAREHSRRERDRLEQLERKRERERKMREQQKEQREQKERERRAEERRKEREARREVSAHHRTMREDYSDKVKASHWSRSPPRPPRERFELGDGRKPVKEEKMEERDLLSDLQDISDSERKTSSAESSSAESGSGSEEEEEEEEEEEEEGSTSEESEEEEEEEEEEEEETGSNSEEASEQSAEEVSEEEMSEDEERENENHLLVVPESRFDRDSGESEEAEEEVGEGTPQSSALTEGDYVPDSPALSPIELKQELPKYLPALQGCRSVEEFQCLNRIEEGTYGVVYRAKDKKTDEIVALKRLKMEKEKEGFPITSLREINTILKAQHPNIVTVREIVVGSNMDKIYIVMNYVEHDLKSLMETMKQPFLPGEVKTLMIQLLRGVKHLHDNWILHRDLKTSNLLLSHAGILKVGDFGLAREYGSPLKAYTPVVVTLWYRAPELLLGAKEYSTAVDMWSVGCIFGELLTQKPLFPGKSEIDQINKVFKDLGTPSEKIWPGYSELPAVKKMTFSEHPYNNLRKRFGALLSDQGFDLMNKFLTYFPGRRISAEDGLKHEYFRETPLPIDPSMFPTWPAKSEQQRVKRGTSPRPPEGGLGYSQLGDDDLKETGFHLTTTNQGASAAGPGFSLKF

CDK18/Cyclin Y = CDK18/Cyclin Y (Homo sapiens, UniProt Q07002); assay: NanoBRET live-cell target engagement, CDK18-NanoLuc/Cyclin Y in HEK-293; format: binding; conditions: CDK18/Y
CDK14/Cyclin Y = CDK14/Cyclin Y (Homo sapiens, UniProt O94921); assay: NanoBRET live-cell target engagement, CDK14-NanoLuc/Cyclin Y in HEK-293; format: binding; conditions: CDK14/Y
CDK10/Cyclin L2 = CDK10/Cyclin L2 (Homo sapiens, UniProt Q15131); assay: NanoBRET live-cell target engagement, CDK10-NanoLuc/Cyclin L2 in HEK-293; conditions: CDK10/L2
CDK10/Cyclin L2, sequence (Q15131 whole entry): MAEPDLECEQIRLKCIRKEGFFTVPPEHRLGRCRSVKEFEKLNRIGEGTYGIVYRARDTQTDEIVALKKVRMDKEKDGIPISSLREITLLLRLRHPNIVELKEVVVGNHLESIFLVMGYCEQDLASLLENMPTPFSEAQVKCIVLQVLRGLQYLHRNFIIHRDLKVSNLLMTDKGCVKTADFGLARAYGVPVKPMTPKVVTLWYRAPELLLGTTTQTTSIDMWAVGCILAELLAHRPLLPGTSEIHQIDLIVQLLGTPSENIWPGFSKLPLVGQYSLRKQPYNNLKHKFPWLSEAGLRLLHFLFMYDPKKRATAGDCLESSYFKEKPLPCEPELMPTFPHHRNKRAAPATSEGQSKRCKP

CDK9/Cyclin K = CDK9/Cyclin K (Homo sapiens, UniProt P50750); assay: NanoBRET live-cell target engagement, NanoLuc-CDK9/Cyclin K in HEK-293; format: binding; conditions: CDK9/K, 10µM
CDK9/Cyclin K, sequence (P50750 whole entry): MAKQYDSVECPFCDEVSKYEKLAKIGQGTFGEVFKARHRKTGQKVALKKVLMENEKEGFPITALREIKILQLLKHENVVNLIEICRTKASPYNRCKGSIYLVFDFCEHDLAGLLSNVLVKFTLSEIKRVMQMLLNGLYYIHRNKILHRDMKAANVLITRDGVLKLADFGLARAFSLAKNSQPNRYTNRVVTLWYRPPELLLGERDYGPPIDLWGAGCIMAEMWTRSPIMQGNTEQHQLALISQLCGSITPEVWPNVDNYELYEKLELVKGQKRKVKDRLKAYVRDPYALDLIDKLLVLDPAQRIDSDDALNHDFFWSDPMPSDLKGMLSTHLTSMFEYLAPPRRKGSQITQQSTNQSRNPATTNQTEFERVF
CDK9/Cyclin K, sequence (O75909 whole entry partner): as the sequence (O75909 whole entry) above

CDK16/Cyclin Y = CDK16/Cyclin Y (Homo sapiens, UniProt Q00536); assay: NanoBRET live-cell target engagement, CDK16-NanoLuc/Cyclin Y in HEK-293; format: binding; conditions: CDK16/Y
[1] = n=3 average ± SEM, n=2 average to 2 significant figures, read-out: IC50 (nM) Average*
[2] = read-out: IC50 (nM) Replicate 1
[3] = read-out: IC50 (nM) Replicate 2

## CNC1CCN(C(=O)c2ccc(Nc3ncc(F)c(-c4cnc(C)n4C(C)C)n3)cc2)C1 (centres unmarked) [AZD5597]
CDK17/Cyclin Y; 10µM
  Inhibition at 10µM (%) Replicate 1: 90.9%
  Inhibition at 10µM (%) Replicate 2: 91.8%
CDK17/Cyclin Y; 10µM, average of replicates
  Inhibition at 10µM (%) Average: 91.3%
CDK17/Cyclin Y; [1]
  IC50: 10 nM
CDK17/Cyclin Y; [2]
  IC50: 6.5 nM
CDK17/Cyclin Y; [3]
  IC50: 13 nM
CDK6/Cyclin D1; 10µM
  Inhibition at 10µM (%) Replicate 1: 99.7%
  Inhibition at 10µM (%) Replicate 2: 100.6%
CDK6/Cyclin D1; 10µM, average of replicates
  Inhibition at 10µM (%) Average: 100.1%
CDK6/Cyclin D1; [1]
  IC50: 8.3 nM
CDK6/Cyclin D1; [2]
  IC50: 10 nM
CDK6/Cyclin D1; [3]
  IC50: 6.5 nM
CDK1/Cyclin E1; CDK1/E1, 10µM
  Inhibition at 10µM (%) Replicate 1: 93.8%
  Inhibition at 10µM (%) Replicate 2: 95.4%
CDK1/Cyclin E1; CDK1/E1, 10µM, average of replicates
  Inhibition at 10µM (%) Average: 94.6%
CDK1/Cyclin E1; CDK1/E1, n=3 average ± SEM, n=2 average to 2 significant figures, read-out: IC50 (nM) Average*
  IC50: 9 nM
CDK1/Cyclin E1; CDK1/E1, read-out: IC50 (nM) Replicate 1
  IC50: 9 nM
CDK1/Cyclin E1; CDK1/E1, read-out: IC50 (nM) Replicate 2
  IC50: 9 nM
CDK1/Cyclin E1; live HEK-293, 2 h, mean ± S.E.M. (n=3) or mean (n=2), read-out: IC50 for CDK/cyclin complexes, CDK1/E1
  IC50: 9 nM
CDK7; 10µM
  Inhibition at 10µM (%) Replicate 1: 95.4%
  Inhibition at 10µM (%) Replicate 2: 93.6%
CDK7; 10µM, average of replicates
  Inhibition at 10µM (%) Average: 94.5%
CDK7; [1]
  IC50: 120 nM
CDK7; [2]
  IC50: 100 nM
CDK7; [3]
  IC50: 150 nM
CDK8/Cyclin C; 10µM
  Inhibition at 10µM (%) Replicate 1: 91.3%
  Inhibition at 10µM (%) Replicate 2: 98.8%
CDK8/Cyclin C; 10µM, average of replicates
  Inhibition at 10µM (%) Average: 95.1%
CDK8/Cyclin C; [1]
  IC50: 370 nM
CDK8/Cyclin C; [2]
  IC50: 434 nM
CDK8/Cyclin C; [3]
  IC50: 297 nM
CDK13/Cyclin K
  Inhibition at 10µM (%) Replicate 1: 42.5%
  Inhibition at 10µM (%) Replicate 2: 57.5%
CDK13/Cyclin K; average of replicates
  Inhibition at 10µM (%) Average: 50.0%
CDK11A/Cyclin L2
  Inhibition at 10µM (%) Replicate 1: 89.7%
  Inhibition at 10µM (%) Replicate 2: 90.1%
CDK11A/Cyclin L2; average of replicates
  Inhibition at 10µM (%) Average: 89.9%
CDK2/Cyclin E1; 10µM
  Inhibition at 10µM (%) Replicate 1: 99.9%
  Inhibition at 10µM (%) Replicate 2: 99.7%
CDK2/Cyclin E1; 10µM, average of replicates
  Inhibition at 10µM (%) Average: 99.8%
CDK2/Cyclin E1; [1]
  IC50: 6.6 nM
CDK2/Cyclin E1; [2]
  IC50: 6.7 nM
CDK2/Cyclin E1; [3]
  IC50: 6.4 nM
CDK20/Cyclin H
  Inhibition at 10µM (%) Replicate 1: 68.9%
  Inhibition at 10µM (%) Replicate 2: 74.8%
CDK19/Cyclin C; CDK19/C, 10µM
  Inhibition at 10µM (%) Replicate 1: 88.7%
  Inhibition at 10µM (%) Replicate 2: 89.0%
CDK19/Cyclin C; CDK19/C, 10µM, average of replicates
  Inhibition at 10µM (%) Average: 88.9%
CDK19/Cyclin C; read-out: IC50 (nM) Average*, CDK19/Y, n=3 average ± SEM, n=2 average to 2 significant figures
  IC50: 240 nM
CDK19/Cyclin C; read-out: IC50 (nM) Replicate 1, CDK19/C
  IC50: 354 nM
CDK19/Cyclin C; read-out: IC50 (nM) Replicate 2, CDK19/C
  IC50: 119 nM
CDK4/Cyclin D1; 10µM
  Inhibition at 10µM (%) Replicate 1: 101.0%
  Inhibition at 10µM (%) Replicate 2: 98.2%
CDK4/Cyclin D1; 10µM, average of replicates
  Inhibition at 10µM (%) Average: 99.6%
CDK4/Cyclin D1; [1]
  IC50: 7 nM
CDK4/Cyclin D1; [2]
  IC50: 7.4 nM
CDK4/Cyclin D1; [3]
  IC50: 6.6 nM
CDK15/Cyclin Y; 10µM
  Inhibition at 10µM (%) Replicate 1: 93.9%
  Inhibition at 10µM (%) Replicate 2: 95.6%
CDK15/Cyclin Y; 10µM, average of replicates
  Inhibition at 10µM (%) Average: 94.7%
CDK15/Cyclin Y; [1]
  IC50: 300 nM
CDK15/Cyclin Y; [2]
  IC50: 250 nM
CDK15/Cyclin Y; [3]
  IC50: 350 nM
CDK5/CDK5R1; 10µM
  Inhibition at 10µM (%) Replicate 1: 90.7%
  Inhibition at 10µM (%) Replicate 2: 97.1%
CDK5/CDK5R1; 10µM, average of replicates
  Inhibition at 10µM (%) Average: 93.9%
CDK5/CDK5R1; [1]
  IC50: 10 nM
CDK5/CDK5R1; [2]
  IC50: 8.2 nM
CDK5/CDK5R1; [3]
  IC50: 12 nM
CDK11B/Cyclin L2
  Inhibition at 10µM (%) Replicate 1: 88.8%
  Inhibition at 10µM (%) Replicate 2: 88.6%
CDK11B/Cyclin L2; average of replicates
  Inhibition at 10µM (%) Average: 88.7%
CDK18/Cyclin Y; 10µM
  Inhibition at 10µM (%) Replicate 1: 94.0%
  Inhibition at 10µM (%) Replicate 2: 101.0%
CDK18/Cyclin Y; 10µM, average of replicates
  Inhibition at 10µM (%) Average: 97.5%
CDK18/Cyclin Y; [1]
  IC50: 130 nM
CDK18/Cyclin Y; [2]
  IC50: 86 nM
CDK18/Cyclin Y; [3]
  IC50: 174 nM
CDK14/Cyclin Y; 10µM
  Inhibition at 10µM (%) Replicate 1: 93.6%
  Inhibition at 10µM (%) Replicate 2: 93.4%
CDK14/Cyclin Y; 10µM, average of replicates
  Inhibition at 10µM (%) Average: 93.5%
CDK14/Cyclin Y; [1]
  IC50: 250 nM
CDK14/Cyclin Y; [2]
  IC50: 151 nM
CDK14/Cyclin Y; [3]
  IC50: 350 nM
CDK10/Cyclin L2; 10µM
  Inhibition at 10µM (%) Replicate 1: 85.6%
  Inhibition at 10µM (%) Replicate 2: 87.4%
CDK10/Cyclin L2; 10µM, average of replicates
  Inhibition at 10µM (%) Average: 86.5%
CDK10/Cyclin L2; read-out: IC50 (nM) Average*, n=3 average ± SEM, n=2 average to 2 significant figures
  IC50: 520 nM
CDK10/Cyclin L2; [2]
  IC50: 450 nM
CDK10/Cyclin L2; [3]
  IC50: 580 nM
CDK9/Cyclin K
  Inhibition at 10µM (%) Replicate 1: 98.2%
  Inhibition at 10µM (%) Replicate 2: 100.7%
CDK9/Cyclin K; average of replicates
  Inhibition at 10µM (%) Average: 99.5%
CDK16/Cyclin Y; 10µM
  Inhibition at 10µM (%) Replicate 1: 88.2%
  Inhibition at 10µM (%) Replicate 2: 91.4%
CDK16/Cyclin Y; [1]
  IC50: 13 nM
CDK16/Cyclin Y; [2]
  IC50: 8.9 nM
CDK16/Cyclin Y; [3]
  IC50: 18 nM

Source: PMC7265341, “Quantifying CDK inhibitor selectivity in live cells” (Nature Communications, 2020)
